# Results: patent US20050080027A1, “Optimized production of viral vectors derived from paroviruses in packaging and production cells by hsv infection or treatment with dna methylation inhibitors” (priority 2001, published 2005)
# Test system: HeLa t-derived AAV producer cells
# Assay: Production of rAAV-(B7.2/GM-CSF) in producer cells using different inhibitors or helper viruses (transducing rAAV titer / AAV packaging efficiency)
# Assay type: cell-based
# Conditions: AdV MOI 10 alone or with 50 mM Na butyrate, 3 μM trichostatin A or 3 μM 5-azacytidine, or HSV-1 MOI 10 as helper virus, three days after infection
# Source text: The use, according to the invention, of the DNA methylation inhibitor leads to an increase in packaging efficiency to a level of at least 10^6, especially 10^7, preferably 10^8, in particular 10^9, transducing particles/ml of crude lyzate or of at least 10^10, especially 10^11, preferably 10^12, in particular 10^13, genomic particles/ml of crude lyzate. This corresponds to 10^5 to 10^8 genomic particles per sown cell. The packaging efficiency can be determined indirectly by using suitable cell lines to determine the transducing AAV titer. While this was effected specifically in this present case by measuring the B7.2-positive cells by fluorescence-labeling B7.2 and counting by means of FACS analysis, another common protein detection method can be used in the case of other transgenes. The transducing titer depends on the detection method and on the cell type employed, which means that it is necessary to select suitable cells when choosing the system for detecting the corresponding parvovirus or AAV serotype, for example HeLa cells in the case of AAV-2. The genomic titer is independent of the cell type. The genomic titer can be ascertained by means of real-time PCR, for example as described by Veldwijk M R et al. (2002) Mol. Ther. 6:272-8.
# AdV was administered either alone or in combination with 50 mM Na butyrate (But), 3 μM trichostatin A (TSA) or 3 μM 5-azacytidine (Aza) (Sigma, Deisenhofen). “Standard” means transient cotransfection of HeLa cells with pAAV-(B7.2/GM-CSF) and the AAV-2 rep/cap helper plasmid and infection with adenovirus (AdV) (MOI 10); harvesting, 3 days after infection;
# rAAV-(B7.2/GM-CSF) was initially prepared using producer cell lines (e.g. 1×10^6 cells sown in a 6 cm diameter cell culture dish, with the cells being sown 1 day before the infection) by infecting with adenovirus (multiplicity of infection, MOI 10). […] After 72 hours, the lyzates were prepared by freeze/thaw lysis and freed from the cell debris. Adenovirus […] HSV-1 was heat-inactivated at 56° C. […]
row,Structure (SMILES),AAV packaging efficiency (yield of transducing rAAV particles)
1,"CCCC(=O)[O-].[Na+] [But, Na butyrate]",did not result in an increase in AAV packaging efficiency
2,"CC(/C=C/C(=O)NO)=C\[C@@H](C)C(=O)c1ccc(N(C)C)cc1 [TSA, trichostatin A]",did not result in an increase in AAV packaging efficiency
3,"Nc1ncn([C@@H]2O[C@H](CO)[C@@H](O)[C@H]2O)c(=O)n1 [Aza, 5-azacytidine]",restore this AAV packaging efficiency
